Data published in patent US20050124684A1, “5-(hydroxymethyl) furfural and derivatives as inhibitors of TNFalpha and IL-1beta production” (priority 2003, published 2005).

Columns and labels:
TNFα = experiment: Inhibition of LPS-induced TNFα expression in PBMCs (ELISA); type: cell-based; details: LPS-stimulated PBMCs; for Concentration of TNFα in PBMCs / Inhibition ratio of production of TNFα in PBMCs: overnight
Procedure: (§1) Peripheral blood […] (PBMCs) were isolated from fresh blood using a Ficoll-Paque Plus reagent (Amersham Bioscience) according to the protocol recommended by the manufacturer. The cells were suspended in a RPMI 1640 medium containing 10% FBS at a concentration of 1×10^5 cells/ml and seeded in a 96-well plate (1×10^4 cells total in each well). Each reaction was carried out in three wells. […] In a positive control, dexamethason (DEX), an anti-inflammatory agent, instead of 5-HMF, was added (final concentration 10 μM). In a positive control, 10 μl of the medium, instead of 5-HMF, was added. The plate was incubated at 37° C. under 5% CO2 for 15 minutes. After 10 μl aliquots of 100 μg/ml of lipopolysaccharide (LPS) were added to all wells except for the negative control, the plate was incubated at 37° C. under 5% CO2 overnight. The plate was spun at 1000 rpm for 15 minutes and the supernatants were collected. The concentrations of TNFα and IL-1β were measured by the TNFα ELISA (Enzyme Linked Immunosorbent Assay) Kit and IL1-β ELISA Kit (Jingmei Bioengineer Technology). The inhibition ratios of TNFα and IL1-β were calculated as follows and the results are shown in Tables 1 and 2: TNFα Inhibition Ratio (%)=[TNFα]control−[TNFα]5-HMF/[TNFα]control×100% IL1-β Inhibition Ratio (%)=[IL1-β]control−[IL1-β]5-HMF/[IL1-β]control×100% where [TNFα]5-HMF is the concentration of TNFα in PBMCs treated with 5-HMF and LPS, [TNFα]control is the concentration of TNFα in PBMCs treated with LPS and the medium, [IL1-β]5-HMF is the concentration of IL1-β in PBMCs treated with 5-HMF and LPS, and [IL1-β]control is the concentration of IL1-β in PBMCs treated with LPS and the medium.

IL-1β = experiment: Inhibition of LPS-induced IL-1β expression in PBMCs (ELISA); type: cell-based; details: LPS-stimulated PBMCs; for Concentration of IL-1β in PBMCs / Inhibition ratio of production of IL-1β in PBMCs: overnight
Procedure: as §1

[1] = at the concentration of 300 μg/ml

Question: How did the “Concentration of TNFα in PBMCs” value (TNFα; 5-HMF 3 μg/ml) turn out when `O=Cc1ccc(CO)o1` [5-HMF, 5-(hydroxymethyl)furfural] was run?
Answer: The value was 124.4 ± 15.2 pg/mL.

Question: And the “Inhibition ratio of production of TNFα in PBMCs” value (TNFα; 5-HMF 3 μg/ml)?
Answer: Its value is 15.7 ± 10.3%.

Question: What about the “Concentration of TNFα in PBMCs” value (TNFα; 5-HMF 10 μg/ml) of the same compound?
Answer: Its value is 107.9 ± 20.0 pg/mL.

Question: And the “Inhibition ratio of production of TNFα in PBMCs” value (TNFα; 5-HMF 10 μg/ml)?
Answer: The value was 26.8 ± 13.6%.

Question: What about the “Concentration of TNFα in PBMCs” value (TNFα; 5-HMF 30 μg/ml) of the same compound?
Answer: Its value is 82.9 ± 27.9 pg/mL.

Question: What about the “Inhibition ratio of production of TNFα in PBMCs” value (TNFα; 5-HMF 30 μg/ml) of the same compound?
Answer: Its value is 43.8 ± 18.9%.

Question: What about the “Concentration of TNFα in PBMCs” value (TNFα; 5-HMF 100 μg/ml) of the same compound?
Answer: The value was 39.3 ± 19.7 pg/mL.

Question: What about the “Inhibition ratio of production of TNFα in PBMCs” value (TNFα; 5-HMF 100 μg/ml) of the same compound?
Answer: Its value is 73.4 ± 13.4%.

Question: What about the “Concentration of TNFα in PBMCs” value (TNFα; 5-HMF 300 μg/ml) of the same compound?
Answer: Its value is 0.3 ± 6.4 pg/mL.

Question: What about the “Inhibition ratio of production of TNFα in PBMCs” value (TNFα; 5-HMF 300 μg/ml) of the same compound?
Answer: Its value is 99.3 ± 4.3%.

Question: What about the “Inhibition of expression of TNFα (in words)” value (TNFα; [1]) of the same compound?
Answer: The value was “completely inhibited”.

Question: And the “Inhibition of expression of TNFα (in words)” value (TNFα; over the tested concentrations)?
Answer: Its value is “concentration-dependent”.

Question: And the “Concentration of IL-1β in PBMCs” value (IL-1β; 5-HMF 3 μg/ml)?
Answer: Its value is 69.9 ± 12.6 pg/mL.

Question: What about the “Inhibition ratio of production of IL-1β in PBMCs” value (IL-1β; 5-HMF 3 μg/ml) of the same compound?
Answer: The value was 40.2 ± 10.8%.

Question: What about the “Concentration of IL-1β in PBMCs” value (IL-1β; 5-HMF 10 μg/ml) of the same compound?
Answer: Its value is 62.7 ± 10.5 pg/mL.

Question: And the “Inhibition ratio of production of IL-1β in PBMCs” value (IL-1β; 5-HMF 10 μg/ml)?
Answer: Its value is 46.4 ± 9.0%.

Question: And the “Concentration of IL-1β in PBMCs” value (IL-1β; 5-HMF 30 μg/ml)?
Answer: Its value is 40.1 ± 2.4 pg/mL.

Question: What about the “Inhibition ratio of production of IL-1β in PBMCs” value (IL-1β; 5-HMF 30 μg/ml) of the same compound?
Answer: Its value is 65.7 ± 2.0%.

Question: What about the “Concentration of IL-1β in PBMCs” value (IL-1β; 5-HMF 100 μg/ml) of the same compound?
Answer: Its value is 13.0 ± 3.7 pg/mL.

Question: What about the “Inhibition ratio of production of IL-1β in PBMCs” value (IL-1β; 5-HMF 100 μg/ml) of the same compound?
Answer: The value was 88.8 ± 3.1%.

Question: And the “Concentration of IL-1β in PBMCs” value (IL-1β; 5-HMF 300 μg/ml)?
Answer: The value was 0 ± 5.0 pg/mL.

Question: What about the “Inhibition ratio of production of IL-1β in PBMCs” value (IL-1β; 5-HMF 300 μg/ml) of the same compound?
Answer: The value was 100 ± 4.3%.

Question: What about the “Inhibition of expression of IL-1β (in words)” value (IL-1β; [1]) of the same compound?
Answer: Its value is “completely inhibited”.

Question: And the “Inhibition of expression of IL-1β (in words)” value (IL-1β; over the tested concentrations)?
Answer: Its value is “concentration-dependent”.

Question: Which “Concentration of TNFα in PBMCs” value (TNFα; 10 μM DEX) does the source give for `C[C@@H]1C[C@H]2[C@@H]3CCC4=CC(=O)C=C[C@]4(C)[C@@]3(F)[C@@H](O)C[C@]2(C)[C@@]1(O)C(=O)CO` [DEX, dexamethason, reference compound] here?
Answer: Its value is 39.5 ± 9.0 pg/mL.

Question: What about the “Inhibition ratio of production of TNFα in PBMCs” value (TNFα; 10 μM DEX) of the same compound?
Answer: Its value is 73.2 ± 6.1%.

Question: And the “Concentration of IL-1β in PBMCs” value (IL-1β; 10 μM DEX)?
Answer: Its value is 20.2 ± 7.0 pg/mL.

Question: What about the “Inhibition ratio of production of IL-1β in PBMCs” value (IL-1β; 10 μM DEX) of the same compound?
Answer: The value was 82.7 ± 6.0%.
